This is an account of results in patent US20110028686A1, “Protein binding miniature proteins” (Yale University, priority 2000, published 2011).

Assay [1] concerns the target T1, CBP KIX wild type (Mus musculus, UniProt P45481).
T1 construct: made in house; host or cells: E. coli BL21(DE3) pArg
Nature of the assay: Equilibrium fluorescence polarization, wild type CBP KIX. The note with it: 25° C. It counts as binding. (In general: Fluorescence polarisation rises when a labelled molecule tumbles more slowly, as on binding a larger partner.)

The target in assay [2] is T2, HisKIX (His-tagged CBP KIX domain) (Mus musculus, UniProt P45481).
T2 construct: The CBP KIX-coding region (residues 586 to 672) of pGEX-KT KIX 10-672; made in house; host or cells: E. coli BL21(DE3) pArg
T2 sequence (P45481 586-672): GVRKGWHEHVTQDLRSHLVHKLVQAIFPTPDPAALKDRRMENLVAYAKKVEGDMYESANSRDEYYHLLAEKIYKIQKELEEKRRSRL
Nature of the assay: Equilibrium fluorescence polarization, HisKIX binding. The note with it: for Kd: 25° C.

[3] abbreviates: fluorescein-labeled unphosphorylated peptide, read-out: Kd HisKIX, unphosphorylated peptide (U).
Setting [4] is: label shows phosphorylated (P) or unphosphorylated (U) form, read-out: Kd HisKIX.

Like-named read-outs stand apart in the source and are kept apart here. Square brackets hold non-standard residues; d marks the D form. Peptide text beside a SMILES is read from it. * marks the point of attachment. Fluorescein(5-NHCOCH2) = O=C(C*)Nc1ccc2c(c1)C(=O)OC21c2ccc(O)cc2Oc2cc(O)ccc21; pS = N[C@@H](COP(=O)(O)O)C(=O)O

T1 sequence (P45481 586-665 limits assumed): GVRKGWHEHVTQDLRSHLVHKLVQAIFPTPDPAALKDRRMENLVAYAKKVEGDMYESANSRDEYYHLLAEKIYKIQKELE

As to `CC[C@H](C)[C@H](NC(=O)[C@H](Cc1ccc(O)cc1)NC(=O)[C@H](C)NC(=O)[C@H](Cc1ccccc1)NC(=O)[C@H](COP(=O)(O)O)NC(=O)[C@H](CC(C)C)NC(=O)[C@H](CCCNC(=N)N)NC(=O)[C@H](CCCNC(=N)N)NC(=O)[C@@H](NC(=O)[C@@H]1CCCN1C(=O)[C@H](C)NC(=O)[C@H](CC(=O)O)NC(=O)[C@H](CC(=O)O)NC(=O)CNC(=O)[C@@H]1CCCN1C(=O)[C@H](Cc1ccc(O)cc1)NC(=O)[C@@H](NC(=O)[C@@H]1CCCN1C(=O)[C@H](CCC(N)=O)NC(=O)[C@H](CO)NC(=O)[C@@H]1CCCN1C(=O)CN)[C@@H](C)O)C(C)C)C(=O)N[C@@H](CC(C)C)C(=O)N[C@@H](CC(C)C)C(=O)N[C@@H](CC(=O)O)C(=O)N[C@@H](CC(C)C)C(=O)N[C@@H](Cc1ccc(O)cc1)C(=O)N[C@@H](CC(C)C)C(=O)N[C@@H](CC(=O)O)C(=O)N[C@@H](C)C(=O)N1CCC[C@H]1C(=O)NCC(=O)N[C@H](C(=O)N[C@@H](CSCC(=O)Nc1ccc2c(c1)C(=O)OC21c2ccc(O)cc2Oc2cc(O)ccc21)C(N)=O)C(C)C` [F20A] (H-GPSQPTYPGDDAPVRRL[pS]FAYILLDLYLDAPGVC(Fluorescein(5-NHCOCH2))-NH2), the dissociation constant (Kd) (in general, a measure of binding affinity in units of concentration) in assay [1] amounted to 2550 ± 250 nM.
Take `CC[C@H](C)[C@H](NC(=O)[C@H](Cc1ccc(O)cc1)NC(=O)[C@H](Cc1ccccc1)NC(=O)[C@H](Cc1ccccc1)NC(=O)[C@H](COP(=O)(O)O)NC(=O)[C@H](C)NC(=O)[C@H](CCCNC(=N)N)NC(=O)[C@H](CCCNC(=N)N)NC(=O)[C@@H](NC(=O)[C@@H]1CCCN1C(=O)[C@H](C)NC(=O)[C@H](CC(=O)O)NC(=O)[C@H](CC(=O)O)NC(=O)CNC(=O)[C@@H]1CCCN1C(=O)[C@H](Cc1ccc(O)cc1)NC(=O)[C@@H](NC(=O)[C@@H]1CCCN1C(=O)[C@H](CCC(N)=O)NC(=O)[C@H](CO)NC(=O)[C@@H]1CCCN1C(=O)CN)[C@@H](C)O)C(C)C)C(=O)N[C@@H](CC(C)C)C(=O)N[C@@H](CC(C)C)C(=O)N[C@@H](CC(=O)O)C(=O)N[C@@H](CC(C)C)C(=O)N[C@@H](Cc1ccc(O)cc1)C(=O)N[C@@H](CC(C)C)C(=O)N[C@@H](CC(=O)O)C(=O)N[C@@H](C)C(=O)N1CCC[C@H]1C(=O)NCC(=O)N[C@H](C(=O)N[C@@H](CSCC(=O)Nc1ccc2c(c1)C(=O)OC21c2ccc(O)cc2Oc2cc(O)ccc21)C(N)=O)C(C)C` [L17A] (H-GPSQPTYPGDDAPVRRA[pS]FFYILLDLYLDAPGVC(Fluorescein(5-NHCOCH2))-NH2): the Kd in assay [1] is 680 ± 50 nM.
`CC[C@H](C)[C@H](NC(=O)[C@H](Cc1ccc(O)cc1)NC(=O)[C@H](Cc1ccccc1)NC(=O)[C@H](Cc1ccccc1)NC(=O)[C@H](COP(=O)(O)O)NC(=O)[C@H](CC(C)C)NC(=O)[C@H](CCCNC(=N)N)NC(=O)[C@H](CCCNC(=N)N)NC(=O)[C@@H](NC(=O)[C@@H]1CCCN1C(=O)[C@H](C)NC(=O)[C@H](CC(=O)O)NC(=O)[C@H](CC(=O)O)NC(=O)CNC(=O)[C@@H]1CCCN1C(=O)[C@H](Cc1ccc(O)cc1)NC(=O)[C@@H](NC(=O)[C@@H]1CCCN1C(=O)[C@H](CCC(N)=O)NC(=O)[C@H](CO)NC(=O)[C@@H]1CCCN1C(=O)CN)[C@@H](C)O)C(C)C)C(=O)N[C@@H](CC(C)C)C(=O)N[C@@H](C)C(=O)N[C@@H](CC(=O)O)C(=O)N[C@@H](CC(C)C)C(=O)N[C@@H](Cc1ccc(O)cc1)C(=O)N[C@@H](CC(C)C)C(=O)N[C@@H](CC(=O)O)C(=O)N[C@@H](C)C(=O)N1CCC[C@H]1C(=O)NCC(=O)N[C@H](C(=O)N[C@@H](CSCC(=O)Nc1ccc2c(c1)C(=O)OC21c2ccc(O)cc2Oc2cc(O)ccc21)C(N)=O)C(C)C` [L24A] (H-GPSQPTYPGDDAPVRRL[pS]FFYILADLYLDAPGVC(Fluorescein(5-NHCOCH2))-NH2) returned an equilibrium dissociation constant (Kd) in assay [1] of 1160 ± 70 nM.
Still for that read-out and setting: next, `CC[C@H](C)[C@H](NC(=O)[C@H](Cc1ccc(O)cc1)NC(=O)[C@H](Cc1ccccc1)NC(=O)[C@H](Cc1ccccc1)NC(=O)[C@H](COP(=O)(O)O)NC(=O)[C@H](CC(C)C)NC(=O)[C@H](CCCNC(=N)N)NC(=O)[C@H](CCCNC(=N)N)NC(=O)[C@@H](NC(=O)[C@@H]1CCCN1C(=O)[C@H](C)NC(=O)[C@H](CC(=O)O)NC(=O)[C@H](CC(=O)O)NC(=O)CNC(=O)[C@@H]1CCCN1C(=O)[C@H](Cc1ccc(O)cc1)NC(=O)[C@@H](NC(=O)[C@@H]1CCCN1C(=O)[C@H](CCC(N)=O)NC(=O)[C@H](CO)NC(=O)[C@@H]1CCCN1C(=O)CN)[C@@H](C)O)C(C)C)C(=O)N[C@@H](CC(C)C)C(=O)N[C@@H](CC(C)C)C(=O)N[C@@H](CC(=O)O)C(=O)N[C@@H](CC(C)C)C(=O)N[C@@H](Cc1ccc(O)cc1)C(=O)N[C@@H](C)C(=O)N[C@@H](CC(=O)O)C(=O)N[C@@H](C)C(=O)N1CCC[C@H]1C(=O)NCC(=O)N[C@H](C(=O)N[C@@H](CSCC(=O)Nc1ccc2c(c1)C(=O)OC21c2ccc(O)cc2Oc2cc(O)ccc21)C(N)=O)C(C)C` [L28A] (H-GPSQPTYPGDDAPVRRL[pS]FFYILLDLYADAPGVC(Fluorescein(5-NHCOCH2))-NH2): 830 ± 110 nM.
With `CC[C@H](C)[C@H](NC(=O)CN)C(=O)N[C@@H](CO)C(=O)N[C@@H](Cc1c[nH]c2ccccc12)C(=O)N1CCC[C@H]1C(=O)N[C@H](C(=O)N[C@@H](Cc1ccccc1)C(=O)N[C@@H](CCC(=O)O)C(=O)NCC(=O)N[C@@H](CC(=O)O)C(=O)N[C@@H](CC(=O)O)C(=O)N[C@@H](C)C(=O)N1CCC[C@H]1C(=O)N[C@H](C(=O)N[C@@H](CCCNC(=N)N)C(=O)N[C@@H](CCCNC(=N)N)C(=O)N[C@@H](CC(C)C)C(=O)N[C@@H](CCC(=O)O)C(=O)N[C@@H](Cc1ccccc1)C(=O)N[C@@H](Cc1ccccc1)C(=O)N[C@@H](Cc1ccc(O)cc1)C(=O)N[C@H](C(=O)N[C@@H](CC(C)C)C(=O)N[C@@H](CC(C)C)C(=O)N[C@@H](CC(=O)O)C(=O)N[C@@H](CC(C)C)C(=O)N[C@@H](Cc1ccc(O)cc1)C(=O)N[C@@H](CC(C)C)C(=O)N[C@@H](CC(=O)O)C(=O)N[C@@H](C)C(=O)N1CCC[C@H]1C(=O)NCC(=O)N[C@H](C(=O)N[C@@H](CSCC(=O)Nc1ccc2c(c1)C(=O)OC21c2ccc(O)cc2Oc2cc(O)ccc21)C(N)=O)C(C)C)[C@@H](C)CC)C(C)C)[C@@H](C)O` [PPKID6 S18E] (H-GISWPTFEGDDAPVRRLEFFYILLDLYLDAPGVC(Fluorescein(5-NHCOCH2))-NH2), the Kd in assay [2] (setting [3]) turned out to be 10900 ± 2000 nM.
Turning to `CC[C@H](C)[C@H](NC(=O)[C@H](Cc1ccc(O)cc1)NC(=O)[C@H](Cc1ccccc1)NC(=O)[C@H](Cc1ccccc1)NC(=O)[C@H](CO)NC(=O)[C@H](CC(C)C)NC(=O)[C@H](CCCNC(=N)N)NC(=O)[C@H](CCCNC(=N)N)NC(=O)[C@@H](NC(=O)[C@@H]1CCCN1C(=O)[C@H](C)NC(=O)[C@H](CC(=O)O)NC(=O)[C@H](CC(=O)O)NC(=O)CNC(=O)[C@H](Cc1c[nH]c2ccccc12)NC(=O)[C@H](CCC(=O)O)NC(=O)[C@@H](NC(=O)[C@H](Cc1ccc(O)cc1)NC(=O)[C@@H]1CCCN1C(=O)[C@H](CO)NC(=O)[C@H](CC(C)C)NC(=O)CN)[C@@H](C)O)C(C)C)C(=O)N[C@@H](CC(C)C)C(=O)N[C@@H](CC(C)C)C(=O)N[C@@H](CC(=O)O)C(=O)N[C@@H](CC(C)C)C(=O)N[C@@H](Cc1ccc(O)cc1)C(=O)N[C@@H](CC(C)C)C(=O)N[C@@H](CC(=O)O)C(=O)N[C@@H](C)C(=O)N1CCC[C@H]1C(=O)NCC(=O)N[C@H](C(=O)N[C@@H](CSCC(=O)Nc1ccc2c(c1)C(=O)OC21c2ccc(O)cc2Oc2cc(O)ccc21)C(N)=O)C(C)C` [PPKID7] (H-GLSPYTEWGDDAPVRRLSFFYILLDLYLDAPGVC(Fluorescein(5-NHCOCH2))-NH2), the Kd in assay [2] (setting [3]) was 2300 ± 200 nM; in assay [2] (setting [4]), 1500 to 3100 nM.
In the same order, the values of `CC[C@H](C)[C@H](NC(=O)[C@H](Cc1ccc(O)cc1)NC(=O)[C@H](Cc1ccccc1)NC(=O)[C@H](Cc1ccccc1)NC(=O)[C@H](CO)NC(=O)[C@H](CC(C)C)NC(=O)[C@H](CCCNC(=N)N)NC(=O)[C@H](CCCNC(=N)N)NC(=O)[C@@H](NC(=O)[C@@H]1CCCN1C(=O)[C@H](C)NC(=O)[C@H](CC(=O)O)NC(=O)[C@H](CC(=O)O)NC(=O)CNC(=O)[C@@H]1CCCN1C(=O)[C@H](CC(=O)O)NC(=O)[C@@H](NC(=O)[C@H](CCCCN)NC(=O)[C@H](Cc1c[nH]c2ccccc12)NC(=O)[C@H](CO)NC(=O)[C@H](CC(C)C)NC(=O)CN)[C@@H](C)O)C(C)C)C(=O)N[C@@H](CC(C)C)C(=O)N[C@@H](CC(C)C)C(=O)N[C@@H](CC(=O)O)C(=O)N[C@@H](CC(C)C)C(=O)N[C@@H](Cc1ccc(O)cc1)C(=O)N[C@@H](CC(C)C)C(=O)N[C@@H](CC(=O)O)C(=O)N[C@@H](C)C(=O)N1CCC[C@H]1C(=O)NCC(=O)N[C@H](C(=O)N[C@@H](CSCC(=O)Nc1ccc2c(c1)C(=O)OC21c2ccc(O)cc2Oc2cc(O)ccc21)C(N)=O)C(C)C` [PPKID8] (H-GLSWKTDPGDDAPVRRLSFFYILLDLYLDAPGVC(Fluorescein(5-NHCOCH2))-NH2) are 3100 ± 500 nM and 1500 to 3100 nM.
For the molecule `CC[C@H](C)[C@H](NC(=O)[C@H](Cc1ccc(O)cc1)NC(=O)[C@H](Cc1ccccc1)NC(=O)[C@H](Cc1ccccc1)NC(=O)[C@H](COP(=O)(O)O)NC(=O)[C@H](CC(C)C)NC(=O)[C@H](CCCNC(=N)N)NC(=O)[C@@H](N)CCCNC(=N)N)C(=O)N[C@@H](CC(C)C)C(=O)N[C@@H](CC(C)C)C(=O)N[C@@H](CC(=O)O)C(=O)N[C@@H](CC(C)C)C(=O)N[C@@H](Cc1ccc(O)cc1)C(=O)N[C@@H](CC(C)C)C(=O)N[C@@H](CC(=O)O)C(=O)N[C@@H](C)C(=O)N1CCC[C@H]1C(=O)NCC(=O)N[C@H](C(=O)N[C@@H](CSCC(=O)Nc1ccc2c(c1)C(=O)OC21c2ccc(O)cc2Oc2cc(O)ccc21)C(N)=O)C(C)C` [Peptide C, reference compound] (H-RRL[pS]FFYILLDLYLDAPGVC(Fluorescein(5-NHCOCH2))-NH2), the “fold higher HisKIX affinity than KID-B^P” value in assay [2] was “greater than 20 fold”. Moreover, the “ΔΔG of CBP KIX binding compared to KID-B of the same phosphorylation state” value is -1.8 kcal/mol in assay [2] (listed as peptide C^P) and over -1.5 kcal/mol in assay [2] (listed as peptide C^U).
